One experiment has as its target T1, cytochrome P450 1A2 (Homo sapiens, UniProt P05177).
T1 sequence (P05177 1-516): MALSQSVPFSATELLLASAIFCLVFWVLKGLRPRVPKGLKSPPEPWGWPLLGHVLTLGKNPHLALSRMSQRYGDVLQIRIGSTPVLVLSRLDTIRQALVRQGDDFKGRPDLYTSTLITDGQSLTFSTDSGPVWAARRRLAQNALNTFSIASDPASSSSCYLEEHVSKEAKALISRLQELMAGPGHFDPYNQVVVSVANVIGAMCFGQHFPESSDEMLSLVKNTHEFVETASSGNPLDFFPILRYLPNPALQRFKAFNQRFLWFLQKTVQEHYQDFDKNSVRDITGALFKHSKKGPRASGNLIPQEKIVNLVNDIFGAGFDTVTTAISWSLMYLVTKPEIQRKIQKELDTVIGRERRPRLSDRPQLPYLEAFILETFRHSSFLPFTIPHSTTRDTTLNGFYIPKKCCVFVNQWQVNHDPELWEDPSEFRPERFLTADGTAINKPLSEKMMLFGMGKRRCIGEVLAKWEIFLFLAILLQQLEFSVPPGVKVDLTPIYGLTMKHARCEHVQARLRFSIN
The experiment in a line: Inhibitory activity on cytochrome P450 1A2. As to conditions: no significant inhibition. The format is in vitro ADME.

For the next experiment, the target named is cytochrome P450 2C9 (Homo sapiens, UniProt P11712). The experiment in a line: Inhibitory activity on cytochrome P450 2C9. Particulars: no significant inhibition. The experiment is classed as in vitro ADME.
Sequence of cytochrome P450 2C9 (P11712 whole entry): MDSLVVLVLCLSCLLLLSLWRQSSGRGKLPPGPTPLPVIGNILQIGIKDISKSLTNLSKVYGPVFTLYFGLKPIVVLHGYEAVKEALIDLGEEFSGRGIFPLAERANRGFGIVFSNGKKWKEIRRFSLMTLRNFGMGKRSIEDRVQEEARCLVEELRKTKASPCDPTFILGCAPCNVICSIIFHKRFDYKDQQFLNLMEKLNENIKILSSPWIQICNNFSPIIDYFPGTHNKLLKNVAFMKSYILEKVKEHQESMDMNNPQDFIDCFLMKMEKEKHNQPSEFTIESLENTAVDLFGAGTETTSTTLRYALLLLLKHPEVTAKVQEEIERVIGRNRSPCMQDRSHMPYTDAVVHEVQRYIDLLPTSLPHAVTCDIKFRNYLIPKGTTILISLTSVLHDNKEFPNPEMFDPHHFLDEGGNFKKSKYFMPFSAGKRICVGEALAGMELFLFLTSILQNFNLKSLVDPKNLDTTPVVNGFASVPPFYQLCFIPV
The target of another experiment is cytochrome P450 2C19 (Homo sapiens, UniProt P33261). Briefly: Inhibitory activity on cytochrome P450 2C19. The experiment is classed as in vitro ADME. Particulars: no significant inhibition.
Sequence of cytochrome P450 2C19 (P33261 whole entry): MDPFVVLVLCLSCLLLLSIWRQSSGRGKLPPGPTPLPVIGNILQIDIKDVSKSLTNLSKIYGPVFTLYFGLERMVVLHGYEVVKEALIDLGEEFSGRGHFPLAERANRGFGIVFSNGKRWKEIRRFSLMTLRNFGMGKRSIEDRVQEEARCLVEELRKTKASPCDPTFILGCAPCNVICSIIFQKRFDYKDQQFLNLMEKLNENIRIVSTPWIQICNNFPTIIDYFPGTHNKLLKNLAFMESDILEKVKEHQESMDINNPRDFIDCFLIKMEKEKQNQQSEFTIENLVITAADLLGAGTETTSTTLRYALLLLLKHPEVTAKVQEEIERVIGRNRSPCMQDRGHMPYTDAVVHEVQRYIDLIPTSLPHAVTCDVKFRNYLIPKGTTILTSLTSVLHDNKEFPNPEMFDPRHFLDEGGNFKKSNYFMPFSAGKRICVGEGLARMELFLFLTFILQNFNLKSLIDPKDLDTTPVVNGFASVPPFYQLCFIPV
Another experiment addresses cytochrome P450 3A4 (Homo sapiens, UniProt P08684). Briefly: Inhibitory activity on cytochrome P450 3A4. The format is in vitro ADME. Particulars: no significant inhibition.
In the next experiment the target is cytochrome P450 2D6 (Homo sapiens, UniProt P10635). Briefly: Inhibitory activity on cytochrome P450 2D6. The format is in vitro ADME. Particulars: no significant inhibition.
Sequence of cytochrome P450 2D6 (P10635 whole entry): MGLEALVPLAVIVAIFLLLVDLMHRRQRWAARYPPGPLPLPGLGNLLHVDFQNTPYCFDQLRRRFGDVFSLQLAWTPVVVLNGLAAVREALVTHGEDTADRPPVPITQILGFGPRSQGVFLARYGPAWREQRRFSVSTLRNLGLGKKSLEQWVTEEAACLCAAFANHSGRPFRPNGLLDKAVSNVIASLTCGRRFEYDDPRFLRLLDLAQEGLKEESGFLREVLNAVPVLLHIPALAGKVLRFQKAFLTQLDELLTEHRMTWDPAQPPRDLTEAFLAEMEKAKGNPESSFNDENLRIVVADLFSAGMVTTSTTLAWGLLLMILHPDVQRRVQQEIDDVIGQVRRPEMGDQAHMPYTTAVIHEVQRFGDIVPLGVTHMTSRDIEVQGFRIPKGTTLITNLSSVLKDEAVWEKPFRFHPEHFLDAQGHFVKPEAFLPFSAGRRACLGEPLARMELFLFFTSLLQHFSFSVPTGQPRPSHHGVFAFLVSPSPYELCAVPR
The next experiment addresses T2, L1196M mutant ALK kinase (Homo sapiens, UniProt Q9UM73, L1196M).
T2 construct: purchased Sino-US Crown Bioscience, Inc. batch number ALKm_20110923
The experiment in a line: HTRF KinEASE-TK assay, inhibitory activity on L1196M mutant ALK kinase. Particulars: L1196M mutant ALK 1 ng/μl, substrate 1 μM, ATP 5 μM, 30° C. 35 minutes, read-out: Inhibition on ALK kinases (L1196M mutant), IC50. The experiment is classed as biochemical. In outline: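 HTRF TK assay: mutant kinase 1 ng/μl, substrate 1 μM, ATP 5 μM, 5 mM MgCl2, 1 mM DTT, 1% DMSO, 35 min at 30 °C. 665/615 ratio read; inhibition normalised to no-compound and 10.4 μM LDK-378 controls; IC50 from curve fit.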

The next experiment concerns the target T3, Wild Type ALK kinase (Homo sapiens, UniProt Q9UM73).
T3 construct: purchased Sino-US Crown Bioscience, Inc. batch number ALK 20110607
The experiment in a line: HTRF KinEASE-TK assay, inhibitory activity on wild type ALK kinase. The format is biochemical. Particulars: wild type ALK 1 ng/μl, substrate 1 μM, 30° C. 35 minutes, read-out: Inhibition on ALK kinases (wildtype), IC50. Put shortly: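 ALK kinase at 1 ng/μl and substrate at 1 μM were reacted with compound (1% DMSO) in buffer with 5 mM MgCl2 and 1 mM DTT for 35 min at 30 °C. HTRF detection used the 665/615 ratio, normalised to no-compound wells and to 10.4 μM LDK-378 wells. IC50 came from a concentration-response fit.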

Some results are limits rather than exact numbers.

For orientation: IC50 means the concentration needed to halve the response being measured.

T2 sequence (Q9UM73 19-1620 L1196M): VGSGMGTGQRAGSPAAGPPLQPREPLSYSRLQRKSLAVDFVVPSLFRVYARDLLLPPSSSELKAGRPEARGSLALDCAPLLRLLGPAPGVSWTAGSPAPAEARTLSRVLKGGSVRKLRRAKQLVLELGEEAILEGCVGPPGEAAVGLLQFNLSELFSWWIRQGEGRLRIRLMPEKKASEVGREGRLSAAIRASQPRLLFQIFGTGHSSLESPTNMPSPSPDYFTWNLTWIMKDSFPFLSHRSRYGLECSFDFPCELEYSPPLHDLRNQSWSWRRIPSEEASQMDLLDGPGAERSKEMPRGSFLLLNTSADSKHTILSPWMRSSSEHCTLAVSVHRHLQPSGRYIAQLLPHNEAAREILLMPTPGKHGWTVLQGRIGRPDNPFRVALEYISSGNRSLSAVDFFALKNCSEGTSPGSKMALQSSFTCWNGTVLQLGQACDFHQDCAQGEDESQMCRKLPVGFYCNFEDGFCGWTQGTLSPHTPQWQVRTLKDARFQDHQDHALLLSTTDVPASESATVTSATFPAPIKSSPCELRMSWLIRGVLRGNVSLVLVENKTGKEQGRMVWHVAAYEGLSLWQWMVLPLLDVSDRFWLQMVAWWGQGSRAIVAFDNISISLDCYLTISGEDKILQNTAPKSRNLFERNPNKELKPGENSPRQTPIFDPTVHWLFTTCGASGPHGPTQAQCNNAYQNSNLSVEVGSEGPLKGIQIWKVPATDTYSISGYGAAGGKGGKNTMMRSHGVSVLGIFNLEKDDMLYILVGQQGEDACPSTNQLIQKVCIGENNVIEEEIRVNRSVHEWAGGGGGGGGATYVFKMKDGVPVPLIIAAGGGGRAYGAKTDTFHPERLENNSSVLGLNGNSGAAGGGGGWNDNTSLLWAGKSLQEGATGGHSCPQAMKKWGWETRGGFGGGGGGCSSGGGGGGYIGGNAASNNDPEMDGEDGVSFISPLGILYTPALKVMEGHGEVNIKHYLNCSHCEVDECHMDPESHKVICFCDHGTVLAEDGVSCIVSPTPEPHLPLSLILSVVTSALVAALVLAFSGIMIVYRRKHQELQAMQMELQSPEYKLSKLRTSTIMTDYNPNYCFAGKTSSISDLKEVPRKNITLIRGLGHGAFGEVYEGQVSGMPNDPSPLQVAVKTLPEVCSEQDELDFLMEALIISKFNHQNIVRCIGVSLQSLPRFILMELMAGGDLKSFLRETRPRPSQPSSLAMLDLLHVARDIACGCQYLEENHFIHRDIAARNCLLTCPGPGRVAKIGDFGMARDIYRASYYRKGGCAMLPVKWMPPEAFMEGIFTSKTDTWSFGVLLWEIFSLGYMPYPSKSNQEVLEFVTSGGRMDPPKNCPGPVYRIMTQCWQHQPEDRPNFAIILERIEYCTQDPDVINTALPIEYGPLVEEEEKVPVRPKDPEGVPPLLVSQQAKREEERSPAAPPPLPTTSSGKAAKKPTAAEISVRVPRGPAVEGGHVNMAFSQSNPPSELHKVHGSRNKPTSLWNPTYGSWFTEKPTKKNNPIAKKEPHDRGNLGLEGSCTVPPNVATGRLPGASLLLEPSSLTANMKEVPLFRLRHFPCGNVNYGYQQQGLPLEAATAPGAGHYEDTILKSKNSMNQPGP
T3 sequence (Q9UM73 19-1620): as the sequence (Q9UM73 19-1620 L1196M) above, with M1178L counted along it
Sequence of cytochrome P450 3A4 (P08684 whole entry): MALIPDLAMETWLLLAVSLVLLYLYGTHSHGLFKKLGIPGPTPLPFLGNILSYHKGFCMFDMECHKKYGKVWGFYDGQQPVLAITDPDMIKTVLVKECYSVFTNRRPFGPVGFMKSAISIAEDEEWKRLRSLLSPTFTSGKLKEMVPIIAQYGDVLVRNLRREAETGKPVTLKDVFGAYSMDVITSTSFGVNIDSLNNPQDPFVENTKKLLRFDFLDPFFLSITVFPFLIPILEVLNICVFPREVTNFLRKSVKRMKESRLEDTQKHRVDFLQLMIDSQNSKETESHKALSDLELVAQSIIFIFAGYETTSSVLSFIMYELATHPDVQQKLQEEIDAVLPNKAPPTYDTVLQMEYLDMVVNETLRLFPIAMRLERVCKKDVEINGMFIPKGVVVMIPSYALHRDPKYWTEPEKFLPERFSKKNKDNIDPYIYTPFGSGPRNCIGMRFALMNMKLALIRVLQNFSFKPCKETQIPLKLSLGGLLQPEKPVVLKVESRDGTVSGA

Regarding `CC(C)S(=O)(=O)c1nn(C)cc1Nc1nc(Nc2ccc(C3CCN(C)CC3)cc2OC2CC2)ncc1Cl` [Final product 40], the concentration for half-maximal inhibition (IC50) was over 10000 nM on cytochrome P450 1A2; over 10000 nM against cytochrome P450 2C9; over 10000 nM at cytochrome P450 2C19; over 10000 nM against cytochrome P450 3A4; over 10000 nM at cytochrome P450 2D6; 5 nM on L1196M mutant ALK kinase. The IC50 on Wild Type ALK kinase is 3 nM.

Consider `CC(C)CS(=O)(=O)c1nn(C)cc1Nc1nc(Nc2ccc(C3CCN(C)CC3)cc2OC2CC2)ncc1Cl` [Final product 43], for which the IC50 at cytochrome P450 1A2 was over 10000 nM; against cytochrome P450 2C9, over 10000 nM; on cytochrome P450 2C19, over 10000 nM; at cytochrome P450 3A4, over 10000 nM; on cytochrome P450 2D6, over 10000 nM; at L1196M mutant ALK kinase it was 12 nM. In addition, on Wild Type ALK kinase, the IC50 was found to be 5 nM.

As to `CC(C)S(=O)(=O)c1nn(C2CC2)cc1Nc1nc(Nc2cc(F)c(C3CCN(C)CC3)cc2OC2CC2)ncc1Cl` [Final product 46], the IC50 is over 10000 nM against cytochrome P450 1A2; over 10000 nM on cytochrome P450 2C9; over 10000 nM against cytochrome P450 2C19; over 10000 nM at cytochrome P450 3A4; over 10000 nM against cytochrome P450 2D6; 6 nM on L1196M mutant ALK kinase. In addition, the concentration for half-maximal inhibition (IC50) at Wild Type ALK kinase turned out to be 2 nM.

Regarding `CC(C)S(=O)(=O)c1nn(C)cc1Nc1nc(Nc2cc(Cl)c(C3CCN(C)CC3)cc2OC2CC2)ncc1Cl` [Final product 47], the IC50 on cytochrome P450 1A2 is over 10000 nM; at cytochrome P450 2C9 it was over 10000 nM; against cytochrome P450 2C19 it was over 10000 nM; against cytochrome P450 3A4, over 10000 nM; at cytochrome P450 2D6, over 10000 nM; at L1196M mutant ALK kinase it was 10 nM. In addition, the IC50 at Wild Type ALK kinase is 4 nM.

As to `Cc1cc(Nc2ncc(Cl)c(Nc3cn(C)nc3S(=O)(=O)CC(C)C)n2)c(OC2CC2)cc1C1CCN(CCO)CC1` [Final product 137], the figures for the IC50 on L1196M mutant ALK kinase and on Wild Type ALK kinase were 11 nM and 4 nM, respectively.

Turning to `Cc1cc(Nc2ncc(Cl)c(Nc3cn(C)nc3S(=O)(=O)C(C)C)n2)c(OC2CCC2)cc1C1CCN(CCO)CC1` [Final product 138], the values for the IC50 at L1196M mutant ALK kinase and on Wild Type ALK kinase were 8 nM and 4 nM, respectively.

In the case of `Cc1cc(Nc2ncc(Cl)c(Nc3cn(C)nc3S(=O)(=O)C(C)C)n2)c(OC(C)C)cc1C1CCN(C(C)(C)CO)CC1` [Final product 152], the IC50 on L1196M mutant ALK kinase turned out to be 9 nM; at Wild Type ALK kinase it was 4 nM.

For `Cc1cc(Nc2ncc(Cl)c(Nc3cn(C)nc3S(=O)(=O)C(C)C)n2)c(OC2CC2)cc1C1CCN(C2CC2)CC1` [Final product 157], the IC50 at L1196M mutant ALK kinase was determined as 11 nM; at Wild Type ALK kinase it was 7 nM.

Turning to `Cc1cc(Nc2ncc(Cl)c(Nc3cn(C)nc3S(=O)(=O)C(C)C)n2)c(OC2CC2)cc1C1CCN(C=O)CC1` [Final product 159, 4-(4-(5-chloro-4-(3-(isopropylsulfonyl)-1-methyl-1H-pyrazol-4-amino)pyrimidin-2-amino)-5-cyclopropoxy-2-methylphenyl)piperidin-1-formaldehyde], the 50% inhibitory concentration (IC50) at L1196M mutant ALK kinase and on Wild Type ALK kinase was 9 nM in each case.

In the case of `Cc1cc(Nc2ncc(Cl)c(Nc3cn(C)nc3S(=O)(=O)C(C)C)n2)c(OC2CC2)cc1C1CCN(C(=O)C2CC2)CC1` [Final product 162, 1-cyclopropylformyl-4-(4-(5-chloro-4-(3-(isopropylsulfonyl)-1-methyl-1H-pyrazol-4-amino)pyrimidin-2-amine)-5-cyclopropoxy-2-methylphenyl)piperidine], the values for the IC50 at L1196M mutant ALK kinase and at Wild Type ALK kinase were 21 nM and 19 nM, respectively.

For `Cc1cc(Nc2ncc(Cl)c(Nc3cn(C)nc3S(=O)(=O)C(C)C)n2)c(OC2CC2)cc1C1CCN(C(=O)C(C)(C)C)CC1` [Final product 164, 1-pivaloyl-4-(4-(5-chloro-4-(3-(isopropylsulfonyl)-1-methyl-1H-pyrazol-4-amino)pyrimidin-2-amine)-5-cyclopropoxy-2-methylphenyl)piperidine], the IC50 on L1196M mutant ALK kinase and on Wild Type ALK kinase was 56 nM throughout.

Take `Cc1cc(Nc2ncc(Cl)c(Nc3cn(C)nc3S(=O)(=O)C(C)C)n2)c(OC2CC2)cc1C1CCN(C(=O)CN(C)C)CC1` [Final product 165, 1-(2-dimethylamino)acetyl-4-(4-(5-chloro-4-(3-(isopropylsulfonyl)-1-methyl-1H-pyrazol-4-amino)pyrimidin-2-amino)-5-cyclopropoxy-2-methylphenyl)piperidine]: the figures for the IC50 on L1196M mutant ALK kinase and on Wild Type ALK kinase were 3 nM and 2 nM, respectively.

On to `Cc1cc(Nc2ncc(Cl)c(Nc3cn(C)nc3S(=O)(=O)C(C)C)n2)c(OC(C)C)cc1C1CN(S(C)(=O)=O)C1` [Final product 168], for which the IC50 came out at 25 nM on L1196M mutant ALK kinase and 14 nM at Wild Type ALK kinase.

For `Cc1cc(Nc2ncc(Cl)c(Nc3cn(C)nc3S(=O)(=O)C(C)C)n2)c(OC2CC2)cc1C1CN(S(C)(=O)=O)C1` [Final product 170], the values for the IC50 at L1196M mutant ALK kinase and on Wild Type ALK kinase were 95 nM and 40 nM, respectively.

As to `Cc1cc(Nc2ncc(Cl)c(Nc3cn(C)nc3S(=O)(=O)CC(C)C)n2)c(OC2CC2)cc1C1CN(S(C)(=O)=O)C1` [Final product 171], the figures for the IC50 on L1196M mutant ALK kinase and at Wild Type ALK kinase were 156 nM and 86 nM, respectively.

Take `CC(C)S(=O)(=O)c1nn(C)cc1Nc1nc(Nc2ccc(C3CCN(S(C)(=O)=O)C3)cc2OC2CC2)ncc1Cl` (stereo not drawn) [Final product 172]: the figures for the IC50 at L1196M mutant ALK kinase and at Wild Type ALK kinase were 9 nM and 8 nM, respectively.

As to `CC(C)S(=O)(=O)c1nn(C2CC2)cc1Nc1nc(Nc2ccc(C3CCN(S(C)(=O)=O)CC3)cc2OC2CC2)ncc1Cl` [Final product 173], the results for the IC50 at L1196M mutant ALK kinase and at Wild Type ALK kinase were 28 nM and 37 nM, respectively.

In the case of `CCNC(=O)N1CCC(c2cc(OC3CC3)c(Nc3ncc(Cl)c(Nc4cn(C)nc4S(=O)(=O)C(C)C)n3)cc2C)CC1` [Final product 174, 4-(4-(5-chloro-4-(3-(isopropylsulfonyl)-1-methyl-1H-pyrazol-4-amine)pyrimidin-2-amine)-5-cyclopropoxy-2-methyl-phenyl)-N-ethyl-piperidin-1-carboxamide], the figures for the half-inhibitory concentration (IC50) on L1196M mutant ALK kinase and at Wild Type ALK kinase were 6 nM and 4 nM, respectively.

For the compound `CCN(CC)[C@H]1CC[C@H](c2cc(OC3CC3)c(Nc3ncc(Cl)c(Nc4cn(C)nc4S(=O)(=O)CC(C)C)n3)cc2C)CC1` [Final product 178], the IC50 at L1196M mutant ALK kinase came to 17 nM; on Wild Type ALK kinase, 18 nM.

In the case of `Cc1cc(Nc2ncc(Cl)c(Nc3cn(C)nc3S(=O)(=O)CC(C)C)n2)c(OC2CC2)cc1[C@H]1CC[C@H](NC2CC2)CC1` [Final product 180], the results for the IC50 at L1196M mutant ALK kinase and at Wild Type ALK kinase were 40 nM and 35 nM, respectively.

Take `Cc1cc(Nc2ncc(Cl)c(Nc3cn(C)nc3S(=O)(=O)CC(C)C)n2)c(OC2CC2)cc1[C@H]1CC[C@H](NC(C)C)CC1` [Final product 182]: the IC50 on L1196M mutant ALK kinase was 22 nM; on Wild Type ALK kinase, 14 nM.

Turning to `Cc1cc(Nc2ncc(Cl)c(Nc3cn(C)nc3S(=O)(=O)C(C)C)n2)c(OC(C)C)cc1[C@H]1CC[C@H](NC(C)C)CC1` [Final product 188], the results for the IC50 on L1196M mutant ALK kinase and at Wild Type ALK kinase were 8 nM and 5 nM, respectively.

`Cc1cc(Nc2ncc(Cl)c(Nc3cn(C)nc3S(=O)(=O)C(C)C)n2)c(OC2CC2)cc1[C@H]1CC[C@@H](N(C)C)CC1` [Final product 189]: the IC50 at L1196M mutant ALK kinase was found to be 7 nM; at Wild Type ALK kinase, 4 nM.

`Cc1cc(Nc2ncc(Cl)c(Nc3cn(C)nc3S(=O)(=O)C(C)C)n2)c(OC2CC2)cc1[C@H]1CC[C@H](NC2CC2)CC1` [Final product 196]: the IC50 at L1196M mutant ALK kinase was 18 nM; on Wild Type ALK kinase it was 9 nM.

In the case of `Cc1cc(Nc2ncc(Cl)c(Nc3cn(C)nc3S(=O)(=O)C(C)C)n2)c(OC2CC2)cc1[C@H]1CC[C@H](NC(C)C)CC1` [Final product 198], the half-maximal inhibitory concentration (IC50) on L1196M mutant ALK kinase came out at 9 nM; on Wild Type ALK kinase, 5 nM.

Turning to `Cc1cc(Nc2ncc(Cl)c(Nc3cn(C)nc3S(=O)(=O)C(C)C)n2)c(OC2CC2)cc1C1=C(Cl)CN(C)CC1` [Final product 208, 5-chloro-N^2-[4-(5-chloro-1-methyl-1,2,3,6-tetrahydro-pyridin-4-yl)-2-cyclopropoxy-5-methyl-phenyl]-N^4-[1-methyl-3-(isopropylsulfonyl)-1H-pyrazol-4-yl]-pyrimidin-2,4-diamine], the IC50 at L1196M mutant ALK kinase was 36 nM; at Wild Type ALK kinase, 6 nM.

The record behind these values is US10023593B2, “ALK kinase inhibitor, and preparation method and uses thereof” (BEIJING PEARL BIOTECHNOLOGY LIMITED LIABILITY COMPANY, priority 2014, dated 2018).
